Experimental data published in patent publication US20260305610A1, “TRIAZOLE COMPOUND, AND PREPARATION METHOD THEREFOR, HERBICIDAL COMPOSITION AND USE THEREOF” (QINGDAO KINGAGROOT CHEMICAL COMPOUND CO., LTD., priority 2023, published 2026).

How the values were obtained:
major crops = test: Pre-emergence test experiment (crops); type: in vivo; set-up: key: 9: completely dead; 8: growth control rate is greater than or equal to 90% and less than 100%; 7: growth control rate is greater than or equal to 80% and less than 90%; 6: growth control rate is greater than or equal to 70% and less than 80%; growth control rate is greater than or equal to 50% and less than 70%; 4: growth control rate is greater than or equal to 30% and less than 50%; growth control rate is greater than or equal to 20% and less than 30%; growth control rate is greater than or equal to 10% and less than 20%; growth control rate is less than 10%; 0: no effect; conditions: 30 g a.i./ha
[1] = system: monocotyledonous and dicotyledonous weeds; test: Pre-emergence test experiment (weeds); type: in vivo; set-up: key: 9: completely dead; 8: growth control rate is greater than or equal to 90% and less than 100%; 7: growth control rate is greater than or equal to 80% and less than 90%; 6: growth control rate is greater than or equal to 70% and less than 80%; growth control rate is greater than or equal to 50% and less than 70%; 4: growth control rate is greater than or equal to 30% and less than 50%; growth control rate is greater than or equal to 20% and less than 30%; growth control rate is greater than or equal to 10% and less than 20%; growth control rate is less than 10%; 0: no effect; conditions: 30 g a.i./ha

COCc1ccc(-n2cnc(C(F)(F)F)n2)nc1Oc1cccc(C(F)F)c1 [Compound 144]
Pre-emergence plant damage level (growth control rate) on Corn (major crops): 0 | Pre-emergence plant damage level (growth control rate) on Cotton (major crops): 0 | Pre-emergence plant damage level (growth control rate) on Soybean (major crops): 0 | Pre-emergence activity level (growth control rate) on Amaranthus retroflexus [1]: 9 | Pre-emergence activity level (growth control rate) on Descurainia sophia [1]: 9 | Pre-emergence activity level (growth control rate) on Digitaria sanguinalis [1]: 8 (growth control rate is greater than or equal to 90% and less than 100%) | Pre-emergence activity level (growth control rate) on Setaria viridis [1]: 9 | Pre-emergence activity level (growth control rate) on Solanum nigrum [1]: 9 | Pre-emergence activity level (growth control rate) on Veronica [1]: 9

COCc1ccc(-n2cnc(C(F)(F)F)n2)nc1Oc1cccc(OC(F)F)c1 [Compound 148]
Pre-emergence plant damage level (growth control rate) on Corn (major crops): 0 | Pre-emergence plant damage level (growth control rate) on Cotton (major crops): 0 | Pre-emergence plant damage level (growth control rate) on Soybean (major crops): 0 | Pre-emergence activity level (growth control rate) on Amaranthus retroflexus [1]: 9 | Pre-emergence activity level (growth control rate) on Descurainia sophia [1]: 9 | Pre-emergence activity level (growth control rate) on Digitaria sanguinalis [1]: 8 (growth control rate is greater than or equal to 90% and less than 100%) | Pre-emergence activity level (growth control rate) on Setaria viridis [1]: 9 | Pre-emergence activity level (growth control rate) on Solanum nigrum [1]: 9 | Pre-emergence activity level (growth control rate) on Veronica [1]: 9

CCc1ccc(-n2cnc(C(F)(F)F)n2)nc1Oc1ccc(F)c(OC(F)(F)F)c1 [Compound 136]
Pre-emergence plant damage level (growth control rate) on Corn (major crops): 0 | Pre-emergence plant damage level (growth control rate) on Cotton (major crops): 0 | Pre-emergence plant damage level (growth control rate) on Soybean (major crops): 0 | Pre-emergence activity level (growth control rate) on Amaranthus retroflexus [1]: 9 | Pre-emergence activity level (growth control rate) on Descurainia sophia [1]: 9 | Pre-emergence activity level (growth control rate) on Digitaria sanguinalis [1]: 9 | Pre-emergence activity level (growth control rate) on Setaria viridis [1]: 9 | Pre-emergence activity level (growth control rate) on Solanum nigrum [1]: 9 | Pre-emergence activity level (growth control rate) on Veronica [1]: 9

COCc1cc(Oc2cccc(C(F)(F)F)c2)nc(-n2cnc(C(F)(F)F)n2)c1 [Compound 68]
Pre-emergence plant damage level (growth control rate) on Corn (major crops): 0 | Pre-emergence plant damage level (growth control rate) on Cotton (major crops): 0 | Pre-emergence plant damage level (growth control rate) on Soybean (major crops): 0 | Pre-emergence activity level (growth control rate) on Amaranthus retroflexus [1]: 9 | Pre-emergence activity level (growth control rate) on Descurainia sophia [1]: 8 (growth control rate is greater than or equal to 90% and less than 100%) | Pre-emergence activity level (growth control rate) on Digitaria sanguinalis [1]: 7 (growth control rate is greater than or equal to 80% and less than 90%) | Pre-emergence activity level (growth control rate) on Setaria viridis [1]: 8 (growth control rate is greater than or equal to 90% and less than 100%) | Pre-emergence activity level (growth control rate) on Solanum nigrum [1]: 7 (growth control rate is greater than or equal to 80% and less than 90%) | Pre-emergence activity level (growth control rate) on Veronica [1]: 8 (growth control rate is greater than or equal to 90% and less than 100%)

CCc1ccc(-n2cnc(C(F)(F)F)n2)nc1Oc1ccc(F)c(OC(F)F)c1 [Compound 132]
Pre-emergence plant damage level (growth control rate) on Corn (major crops): 0 | Pre-emergence plant damage level (growth control rate) on Cotton (major crops): 0 | Pre-emergence plant damage level (growth control rate) on Soybean (major crops): 0 | Pre-emergence activity level (growth control rate) on Amaranthus retroflexus [1]: 9 | Pre-emergence activity level (growth control rate) on Descurainia sophia [1]: 9 | Pre-emergence activity level (growth control rate) on Digitaria sanguinalis [1]: 9 | Pre-emergence activity level (growth control rate) on Setaria viridis [1]: 9 | Pre-emergence activity level (growth control rate) on Solanum nigrum [1]: 9 | Pre-emergence activity level (growth control rate) on Veronica [1]: 9

COCc1ccc(-n2cnc(C(F)(F)F)n2)nc1Oc1cccc(Cl)c1 [Compound 139]
Pre-emergence plant damage level (growth control rate) on Corn (major crops): 0 | Pre-emergence plant damage level (growth control rate) on Cotton (major crops): 0 | Pre-emergence plant damage level (growth control rate) on Soybean (major crops): 0 | Pre-emergence activity level (growth control rate) on Amaranthus retroflexus [1]: 9 | Pre-emergence activity level (growth control rate) on Descurainia sophia [1]: 9 | Pre-emergence activity level (growth control rate) on Digitaria sanguinalis [1]: 9 | Pre-emergence activity level (growth control rate) on Setaria viridis [1]: 9 | Pre-emergence activity level (growth control rate) on Solanum nigrum [1]: 9 | Pre-emergence activity level (growth control rate) on Veronica [1]: 9

CCc1ccc(-n2cnc(C(F)F)n2)nc1Oc1cccc(OC(F)(F)F)c1 [Compound 73]
Pre-emergence plant damage level (growth control rate) on Corn (major crops): 0 | Pre-emergence plant damage level (growth control rate) on Cotton (major crops): 0 | Pre-emergence plant damage level (growth control rate) on Soybean (major crops): 0 | Pre-emergence activity level (growth control rate) on Amaranthus retroflexus [1]: 9 | Pre-emergence activity level (growth control rate) on Descurainia sophia [1]: 9 | Pre-emergence activity level (growth control rate) on Digitaria sanguinalis [1]: 8 (growth control rate is greater than or equal to 90% and less than 100%) | Pre-emergence activity level (growth control rate) on Setaria viridis [1]: 8 (growth control rate is greater than or equal to 90% and less than 100%) | Pre-emergence activity level (growth control rate) on Solanum nigrum [1]: 9 | Pre-emergence activity level (growth control rate) on Veronica [1]: 9

Cc1ccc(-n2cnc(C(F)(F)F)n2)nc1Oc1ccc(F)c(OC(F)(F)F)c1 [Compound 66]
Pre-emergence plant damage level (growth control rate) on Corn (major crops): 0 | Pre-emergence plant damage level (growth control rate) on Cotton (major crops): 0 | Pre-emergence plant damage level (growth control rate) on Soybean (major crops): 0 | Pre-emergence activity level (growth control rate) on Amaranthus retroflexus [1]: 9 | Pre-emergence activity level (growth control rate) on Descurainia sophia [1]: 9 | Pre-emergence activity level (growth control rate) on Digitaria sanguinalis [1]: 9 | Pre-emergence activity level (growth control rate) on Setaria viridis [1]: 9 | Pre-emergence activity level (growth control rate) on Solanum nigrum [1]: 9 | Pre-emergence activity level (growth control rate) on Veronica [1]: 9

COCc1ccc(-n2cnc(C(F)(F)F)n2)nc1Oc1ccc(F)c(C(F)(F)F)c1 [Compound 143]
Pre-emergence plant damage level (growth control rate) on Corn (major crops): 0 | Pre-emergence plant damage level (growth control rate) on Cotton (major crops): 0 | Pre-emergence plant damage level (growth control rate) on Soybean (major crops): 0 | Pre-emergence activity level (growth control rate) on Amaranthus retroflexus [1]: 9 | Pre-emergence activity level (growth control rate) on Descurainia sophia [1]: 9 | Pre-emergence activity level (growth control rate) on Digitaria sanguinalis [1]: 8 (growth control rate is greater than or equal to 90% and less than 100%) | Pre-emergence activity level (growth control rate) on Setaria viridis [1]: 9 | Pre-emergence activity level (growth control rate) on Solanum nigrum [1]: 9 | Pre-emergence activity level (growth control rate) on Veronica [1]: 9

CCc1ccc(-n2cnc(C(F)(F)F)n2)nc1Oc1cccc(CF)c1 [Compound 85]
Pre-emergence plant damage level (growth control rate) on Corn (major crops): 0 | Pre-emergence plant damage level (growth control rate) on Cotton (major crops): 0 | Pre-emergence plant damage level (growth control rate) on Soybean (major crops): 0 | Pre-emergence activity level (growth control rate) on Amaranthus retroflexus [1]: 9 | Pre-emergence activity level (growth control rate) on Veronica [1]: 9

COCc1ccc(-n2cnc(C(F)(F)F)n2)nc1Oc1cccc(C)c1 [Compound 149]
Pre-emergence plant damage level (growth control rate) on Corn (major crops): 0 | Pre-emergence plant damage level (growth control rate) on Cotton (major crops): 0 | Pre-emergence plant damage level (growth control rate) on Soybean (major crops): 0 | Pre-emergence activity level (growth control rate) on Digitaria sanguinalis [1]: 8 (growth control rate is greater than or equal to 90% and less than 100%) | Pre-emergence activity level (growth control rate) on Setaria viridis [1]: 8 (growth control rate is greater than or equal to 90% and less than 100%)

N#Cc1cc(Oc2cccc(C(F)(F)F)c2)nc(-n2cnc(C(F)(F)F)n2)c1 [Compound 2]
Pre-emergence plant damage level (growth control rate) on Corn (major crops): 0 | Pre-emergence plant damage level (growth control rate) on Cotton (major crops): 0 | Pre-emergence plant damage level (growth control rate) on Soybean (major crops): 0 | Pre-emergence activity level (growth control rate) on Amaranthus retroflexus [1]: 9 | Pre-emergence activity level (growth control rate) on Descurainia sophia [1]: 9 | Pre-emergence activity level (growth control rate) on Digitaria sanguinalis [1]: 8 (growth control rate is greater than or equal to 90% and less than 100%) | Pre-emergence activity level (growth control rate) on Setaria viridis [1]: 8 (growth control rate is greater than or equal to 90% and less than 100%) | Pre-emergence activity level (growth control rate) on Solanum nigrum [1]: 9 | Pre-emergence activity level (growth control rate) on Veronica [1]: 9

COCc1ccc(-n2cnc(C(F)(F)F)n2)nc1Oc1ccc(F)c(OC(F)F)c1 [Compound 147]
Pre-emergence plant damage level (growth control rate) on Corn (major crops): 0 | Pre-emergence plant damage level (growth control rate) on Cotton (major crops): 0 | Pre-emergence plant damage level (growth control rate) on Soybean (major crops): 0 | Pre-emergence activity level (growth control rate) on Amaranthus retroflexus [1]: 9 | Pre-emergence activity level (growth control rate) on Descurainia sophia [1]: 9 | Pre-emergence activity level (growth control rate) on Digitaria sanguinalis [1]: 8 (growth control rate is greater than or equal to 90% and less than 100%) | Pre-emergence activity level (growth control rate) on Setaria viridis [1]: 9 | Pre-emergence activity level (growth control rate) on Solanum nigrum [1]: 9 | Pre-emergence activity level (growth control rate) on Veronica [1]: 9

CCc1ccc(-n2cnc(C(F)(F)F)n2)nc1Oc1cncc(C(F)(F)F)c1 [Compound 17]
Pre-emergence plant damage level (growth control rate) on Corn (major crops): 0 | Pre-emergence plant damage level (growth control rate) on Cotton (major crops): 0 | Pre-emergence plant damage level (growth control rate) on Soybean (major crops): 0 | Pre-emergence activity level (growth control rate) on Amaranthus retroflexus [1]: 9 | Pre-emergence activity level (growth control rate) on Descurainia sophia [1]: 9 | Pre-emergence activity level (growth control rate) on Digitaria sanguinalis [1]: 9 | Pre-emergence activity level (growth control rate) on Setaria viridis [1]: 9 | Pre-emergence activity level (growth control rate) on Solanum nigrum [1]: 9 | Pre-emergence activity level (growth control rate) on Veronica [1]: 9

Cc1ccc(-n2cnc(C(C)(F)F)n2)nc1Oc1cccc(C(F)(F)F)c1 [Compound 13]
Pre-emergence plant damage level (growth control rate) on Corn (major crops): 0 | Pre-emergence plant damage level (growth control rate) on Cotton (major crops): 0 | Pre-emergence plant damage level (growth control rate) on Soybean (major crops): 0 | Pre-emergence activity level (growth control rate) on Amaranthus retroflexus [1]: 9 | Pre-emergence activity level (growth control rate) on Descurainia sophia [1]: 9 | Pre-emergence activity level (growth control rate) on Digitaria sanguinalis [1]: 8 (growth control rate is greater than or equal to 90% and less than 100%) | Pre-emergence activity level (growth control rate) on Setaria viridis [1]: 7 (growth control rate is greater than or equal to 80% and less than 90%) | Pre-emergence activity level (growth control rate) on Veronica [1]: 9
